# Data from ChEMBL document CHEMBL3400129, “Novel hybrid nocodazole analogues as tubulin polymerization inhibitors and their antiproliferative activity” (Bioorg Med Chem Lett, 2015).
# Tests used:
# Tubulin (Homo sapiens) = Tubulin (Homo sapiens) (UniProt P68371+Q9H4B7+P0DPH7+P68366+Q13509+Q71U36+P04350+Q3ZCM7+P07437+P68363+Q9BQE3+Q6PEY2+Q13885+Q9BVA1+Q9BUF5); test: Displacement of [3H]colchicine from tubulin (unknown origin) at 5 uM; assay type: protein-complex assay
# A549 = test: Cytotoxicity against human A549 cells; assay type: functional, cell-based
# Tubulin = test: Inhibition of tubulin polymerization (unknown origin); assay type: protein-complex assay, Homo sapiens
inhibition (Tubulin (Homo sapiens)) [%],IC50 (Tubulin) [µM],SMILES,IC50 (A549) [µM]
–,> 20,COC(=O)Nc1nc2ccc(C(=O)c3ccc(O)cc3O)cc2[nH]1,> 100
56,2,COC(=O)Nc1nc2ccc(C(=O)c3sccc3O)cc2[nH]1,6
38,2.2,COC(=O)Nc1nc2ccc(C(=O)c3ccc(OC)cc3O)cc2[nH]1,> 100

SMILES,inhibition (Tubulin (Homo sapiens)) [%],IC50 (Tubulin) [µM],IC50 (A549) [µM]
COC(=O)Nc1nc2ccc(/C=C\c3cc(OC)c(OC)c(OC)c3)cc2[nH]1,39,1.6,12
